From US20090117177A1, “Echogenic microbubbles and microemulsions for ultrasound-enhanced nanoparticle-mediated delivery of agents” (priority 2005, published 2009)
Converted amounts (≈) assume the structure as drawn.

How the values were obtained:
[1] = system: HCT116 colon cancer tumors; test: HCT116 tumor growth rates; assay type: in vivo, male nu/nu mice; conditions: intravenous injection, DOX 3 mg/kg
Experimental: Tumors: HCT116 colon cancer tumors were inoculated subcutaneously to the right flanks of male nu/nu mice. (See, FIGS. 24 and 25). In contrast to A2780 tumors, this tumor is characterized as being poorly vascularized (See, FIG. 24).
(§1) DOX-loaded micelles were injected either intravenously (i.v.) or intratumorally (i.t.) at a DOX dosage of 3 mg/kg (growth rate studies) or 6 mg/kg (biodistribution studies).
Tumor growth rates: Animals were randomly assigned to experimental and control groups, comprising five animals each. Intravenous treatment was initiated when tumor volume reached 50-100 mm^3. Intratumoral treatment was initiated when tumor volume reached 150-300 mm^3. A total of four injections were delivered twice a week for two weeks. For intratumoral injections, four injections of 25 μl drug solution each were made into four sites of a tumor.

[2] = system: HCT116 colon cancer tumors; test: HCT116 biodistribution, DOX uptake by cells of organs by flow cytometry; assay type: in vivo, male nu/nu mice
Experimental: as §1
Biodistribution studies: DOX uptake by the cells of various organs was measured by flow cytometry. Mice were intratumorally injected with either free (i.e., PBS-dissolved) DOX or micelle-encapsulated DOX. Ten hours after injection of the composition, mice were sacrificed and tumors and various organs were excised and digested in trypsin.

colon cancer HCT116 = test: Sensitivity of HCT116 to DOX; assay type: cell-based, human
[3] = ten hours after intratumoral injection

DOX internalization by tumor cells ([2]; ten hours after i.v. injection): did not deliver drug to tumor cells | DOX in spleen cells [2, 3]: slightly higher | DOX uptake by heart cells [2, 3]: significant uptake | IC50 (colon cancer HCT116): 1.5 µg/mL (≈ 2.76 µM)
Structure (SMILES): COc1cccc2c1C(=O)c1c(O)c3c(c(O)c1C2=O)C[C@@](O)(C(=O)CO)C[C@@H]3O[C@H]1C[C@H](N)[C@H](O)[C@H](C)O1 [DOX, doxorubicin]
tumor response [1]: high resistance to chemotherapy
